Data as given in patent US12655106B2 (Eikonizo Therapeutics, Inc., priority 2021, dated 2026).

Key:
Full length Human HDAC6 = molecular target: T1, Full length Human HDAC6 (Homo sapiens, UniProt Q9UBN7); assay: Caliper endpoint assay for HDAC enzymatic activity (HDAC6); assay type: biochemical; details: for IC50: in vitro enzymatic, Caliper endpoint assay, 30 min pre-incubation, 1 μM substrate peptide; for Selectivity (6 v 8): ratio of HDAC8 IC50/HDAC6 IC50
T1 construct: Full length Human HDAC6; FLAG (C); host or cells: baculovirus expression system
T1 sequence (Q9UBN7 1-1215): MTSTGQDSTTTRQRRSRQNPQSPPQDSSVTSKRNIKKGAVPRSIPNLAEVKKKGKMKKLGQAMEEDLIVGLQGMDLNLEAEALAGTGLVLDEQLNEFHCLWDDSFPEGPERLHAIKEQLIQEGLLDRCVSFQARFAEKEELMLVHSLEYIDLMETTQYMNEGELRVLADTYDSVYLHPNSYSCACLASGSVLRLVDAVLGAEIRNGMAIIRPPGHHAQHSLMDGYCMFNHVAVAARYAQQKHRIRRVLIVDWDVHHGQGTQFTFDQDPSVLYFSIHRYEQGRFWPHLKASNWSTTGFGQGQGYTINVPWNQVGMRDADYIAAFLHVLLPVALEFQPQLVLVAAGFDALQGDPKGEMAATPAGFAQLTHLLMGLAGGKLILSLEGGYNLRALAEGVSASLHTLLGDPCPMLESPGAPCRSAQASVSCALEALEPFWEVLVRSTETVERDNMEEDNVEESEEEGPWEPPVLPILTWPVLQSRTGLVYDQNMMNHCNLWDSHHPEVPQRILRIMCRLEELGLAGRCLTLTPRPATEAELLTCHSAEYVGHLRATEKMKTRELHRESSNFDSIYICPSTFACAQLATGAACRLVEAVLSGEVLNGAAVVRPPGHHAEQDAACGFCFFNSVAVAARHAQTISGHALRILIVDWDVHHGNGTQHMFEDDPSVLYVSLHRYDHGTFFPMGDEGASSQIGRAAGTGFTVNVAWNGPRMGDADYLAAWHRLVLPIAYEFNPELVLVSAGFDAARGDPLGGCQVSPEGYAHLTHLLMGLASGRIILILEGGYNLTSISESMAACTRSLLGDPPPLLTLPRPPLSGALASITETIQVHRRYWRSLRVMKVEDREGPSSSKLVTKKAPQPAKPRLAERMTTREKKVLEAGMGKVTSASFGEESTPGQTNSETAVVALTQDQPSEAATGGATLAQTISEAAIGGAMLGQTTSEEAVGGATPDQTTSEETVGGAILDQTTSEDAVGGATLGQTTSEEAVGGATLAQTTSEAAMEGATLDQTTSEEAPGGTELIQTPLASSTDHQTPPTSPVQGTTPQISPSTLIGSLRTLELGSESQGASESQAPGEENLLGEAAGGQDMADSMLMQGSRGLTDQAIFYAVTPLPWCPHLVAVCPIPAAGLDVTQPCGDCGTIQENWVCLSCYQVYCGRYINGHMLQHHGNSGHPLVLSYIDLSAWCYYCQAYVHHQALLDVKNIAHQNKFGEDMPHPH

Full length Human HDAC8 = molecular target: T2, Full length Human HDAC8 (Homo sapiens, UniProt Q9BY41); assay: Caliper endpoint assay for HDAC enzymatic activity (HDAC8); assay type: biochemical; details: in vitro enzymatic, 30 min pre-incubation, 1 μM substrate peptide
T2 construct: Full length Human HDAC8; HIS (N); host or cells: baculovirus expression system
T2 sequence (Q9BY41 1-377): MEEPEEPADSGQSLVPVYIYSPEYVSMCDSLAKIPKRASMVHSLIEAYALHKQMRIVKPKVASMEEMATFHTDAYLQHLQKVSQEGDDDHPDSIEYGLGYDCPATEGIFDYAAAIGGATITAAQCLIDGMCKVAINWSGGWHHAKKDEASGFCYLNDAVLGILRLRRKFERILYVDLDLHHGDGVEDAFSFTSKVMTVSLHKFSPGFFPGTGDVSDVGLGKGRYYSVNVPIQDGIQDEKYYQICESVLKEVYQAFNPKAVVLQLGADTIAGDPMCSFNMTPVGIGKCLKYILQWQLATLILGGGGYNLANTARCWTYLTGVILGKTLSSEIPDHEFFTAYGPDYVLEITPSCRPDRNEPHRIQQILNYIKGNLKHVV

Structure (SMILES)	IC50 (Full length Human HDAC6) [nM]	Selectivity (6 v 8) (Full length Human HDAC6)	IC50 (Full length Human HDAC8) [nM]
[2H]c1c(C(=O)NO)ccc2c1CCN(C1CC3(CCCCC3)C1)C2 [Compound 505, N-hydroxy-2-(spiro[3.5]nonan-2-yl)-1,2,3,4-tetrahydroisoquinoline-5-d-6-carboxamide]	1 to 100	IV (IV: >100-1000)	10000 to 100000
CC[C@H]1Cc2c(F)cc(C(=O)NO)cc2CN1C[C@@H]1C[C@H]2CC[C@@H](C1)N2C (single isomer, unassigned) [Compound 573]	1 to 100	IV (IV: >100-1000)	1000 to 10000
O=C(NO)c1cc(F)c2c(c1)CCN(C[C@H]1CCC3(CCCCC3)C1)C2 (single isomer, unassigned) [Compound 108]	1 to 100		10000 to 100000
O=C(NO)c1cc(F)c2c(c1)CCN(C1CCC3(CCNCC3)C1)C2 (stereo not drawn) [Compound 416, 8-fluoro-N-hydroxy-2-(8-azaspiro[4.5]decan-2-yl)-1,2,3,4-tetrahydroisoquinoline-6-carboxamide]	1 to 100	IV (IV: >100-1000)	10000 to 100000
CC[C@@H]1Cc2c(F)cc(C(=O)NO)cc2CN1CC1COC1 (single isomer, unassigned) [Compound 217]	1 to 100	IV (IV: >100-1000)	10000 to 100000
O=C(NO)c1cc(F)c2c(c1)CCN([C@@H]1CCC3(CCCCC3)C1)C2 (single isomer, unassigned) [Compound 110]	1 to 100		10000 to 100000
CC[C@@H]1Cc2c(F)cc(C(=O)NO)cc2CN1CC1CC2CCC(C1)N2C (single isomer, unassigned) [Compound 571]	100 to 1000	III (III: >10-100)	1000 to 10000
CC[C@@H]1N(Cc2ccc(C(=O)NO)cc2F)CC12CCCC2 (single isomer, unassigned) [Compound 168]	100 to 1000		1000 to 10000
O=C(NO)c1cc(F)c2c(c1)CN1CCC[C@@H]1C2 [Compound 124]	1 to 100	IV (IV: >100-1000)	1000 to 10000
CC1(C)CC(N2CCc3cc(C(=O)NO)cc(F)c3C2)C1 [Compound 201, 2-(3,3-dimethylcyclobutyl)-8-fluoro-3,4-dihydro-1H-isoquinoline-6-carbohydroxamic acid]	1 to 100	V (V: >1000)	10000 to 100000
CC[C@@H]1Cc2c(F)cc(C(=O)NO)cc2CN1C1CC2(CCN(C)CC2)C1 (single isomer, unassigned) [Compound 594]	1 to 100	V (V: >1000)	> 100000
CC[C@H]1Cc2c(F)cc(C(=O)NO)cc2CN1CC1CC2CCC(C1)N2C (single isomer, unassigned) [Compound 570]	1 to 100	V (V: >1000)	10000 to 100000
CC(=O)N1CCC[C@]2(C1)C[C@H](N1CCc3cc(C(=O)NO)cc(F)c3C1)C2 (single isomer, unassigned) [Compound 348, 2-(6-acetyl-6-azaspiro[3.5]nonan-2-yl)-8-fluoro-3,4-dihydro-1H-isoquinoline-6-carbohydroxamic acid]	1 to 100	IV (IV: >100-1000)	10000 to 100000
CN1CC[C@]2(CC[C@@H](N3CCc4cc(C(=O)NO)cc(F)c4C3)C2)C1 (single isomer, unassigned) [Compound 402]	1 to 100	IV (IV: >100-1000)	1000 to 10000
O=C(NO)c1cc(F)c2c(c1)CCN([C@H]1CCN(C3CC3)C3(CCC3)C1)C2 (single isomer, unassigned) [Compound 439]	1 to 100	IV (IV: >100-1000)	10000 to 100000
